# From patent US5504244A, “Alkylarylketo acids” (Boehringer Ingelheim Pharmaceuticals, Inc., priority 1993, dated 1996)
# pIC50: −log10 of the molar value. Like-named read-outs stand apart in the source and are kept apart here.
# Tests used:
# Format in all cases: cell-based
# guinea pig ileal strips [1] = assay: Modified Schultz-Dale Assay: inhibition of antigen-induced anaphylactic contraction of passively sensitized ileal strips; conditions: Cavia porcellus, **tested at 20 μg/ml
# [2] = tested on: 5-HETE biosynthesized by glycogen-stimulated polymorphonuclear leucocytes (PMNs); assay: Hydroxyacid Profile Assay (HPA): inhibition of 5-HETE synthesis in glycogen-elicited rabbit PMNs; conditions: Oryctolagus cuniculus, Leucocyte; for inhibition at 100 µM: read-out: Percent Inhibition (100 μM); for pIC50: read-out: IC50 (50% inhibition of 5-HETE synthesis)
# Method: As previously noted 5-HETE biosynthesis serves as a marker for arachidonic acid metabolism via the 5-lipoxygenase pathway which produces (poly)hydroxyeicosatetraenoic acids and the potent bronchoconstrictor and vasoactive leukotrienes LTC4, LTD4 and LTE4.
# Buffer A (8.70 g NaCl; 0.27 g KCl; 0.42 g Na2 HPO4; 0.76 g KH2 PO4; and 1.00 g dextrose per liter H2 O; pH 7.0) (0.325 ml) is introduced into each of a battery of screwtop culture tubes. Then, a solution of a compound (0.100 ml) to be assayed is dispensed into individual tubes. Assays are performed in duplicate at 100 μM and 10 μM concentrations. Control tubes receive Buffer A (0 100 ml) in lieu of compound. Next, rabbit PMNs (2×10^7 cells/tube; 4×10^7cells/ml) (0.500 ml) are added to each tube. The rabbit PMN's used are elicited with glycogen and made into a preparation substantially as described by F. Hirata. et al (1979) Proc. Natl. Acad. Sci. USA, 76, 2640-2643. The tubes are vortexed and preincubated in a shaking 37° C. water bath for 15 minutes.
# Thereafter, the tubes are removed from the water bath and calcium ionophore solution (400 μg/ml A-23187; Sigma Chemical Co., St. Louis, Mo.) (0.025 ml), ^14 C-arachidonic acid (0.25 μCi in 0.025 ethanol; New England Nuclear Products, Boston, Mass.) (0.025 ml) and calcium chloride solution (CaCl2.2H2 O ); 105.8 mg/10 […]) (0.025 ml) are added in that order. The tubes are vortexed and returned to the water bath for 30 minutes. The reaction is then terminated by the addition of HCl (0.8N, 0.025 ml).
# Extraction and concentration of ^14 C-labeled 5-HETE is performed as follows. First, solution containing 2 parts ethyl acetate, 3 parts CH2 Cl2 and 0.01 ml unlabeled arachidonic acid is added (5.01 ml) to each tube. The tubes are capped and briefly vortexed. The contents of each tube is poured into a polypropylene column fitted with a porous polyethylene disc and Whatman phase separation filter paper. The organic phase is collected by gravity filtration into a conical centrifuge tube, While the aqueous phase is retained in the column by the phase separation paper. Each culture tube is rinsed once with the EtOAc:CH2 Cl2 solution (1.0 ml) and the wash added to the column. The organic phase is concentrated to (0.5 ml) using a Savant Speed Vac concentrator (Savant Instruments, Inc., Hicksville, N.Y.).
# After concentration of the organic phase, the tubes are vortexed and stored covered on ice. An aliquot (0.01 ml) is then removed for liquid scintillation counting in a Beckman LS7500 Liquid Scintillation Counter (Beckman Instruments Corp., Fullerton, Calif.). Based on the count, the number of μl containing 1×10^5 cpm is calculated. This volume is applied to a silica gel covered glass plate in a 10 mm streak. The remaining fluid in the tube is measured via syringe and noted.
# The TLC plate is placed in a chromatography chamber containing the following solvent system: CHCl3 :MeOH:HOAc:H2 O (v/v;90: 9:1:0.65). The plate is then air dried and counted on a Berthold Linear TLC Analyzer (Berthold Instruments, Inc., Pittsburgh, Pa.) for 30 minutes per lane if a dose response curve had been run, or for 5 min per lane if drug screening had been done. The integrated area of the 5-HETE band for each compound is converted to percent of control and analyzed. The percent inhibition at 100 μM compound concentration and the concentration (μM) which produces a 50% inhibition of 5-HETE synthesis (IC50), are determined for those compounds described in Examples 1-36, and are reported in Table 1 .
# guinea pig ileal strips [3] = assay: Modified Schultz-Dale Assay: inhibition of antigen-induced anaphylactic contraction of passively sensitized ileal strips; conditions: Cavia porcellus; for pIC50: value in parentheses
# Method: In the classic Schultz-Dale assay, guinea pigs are sensitized with a known immunogen or passively sensitized with guinea pig antiserum to the immunogen, strips of ilea are recovered, and the extent of their contraction in response to a challenge exposure to the same antigen is observed as a measure of anaphylactic response. The experiments described here follow this same procedure while exposing the ileal strips to test compound before exposure to antigen challenge (preincubation) and, in some strips, also after antigen challenge (postincubation).
# The male Hartley strain guinea pigs (450-650 g) whose ilea are used in this Schultz-Dale assay are passively sensitized with IgE antiovalbumin antiserum as follows. The antiserum is developed in another group of similar guinea pigs as described in Graziano, et al., J. Immunol. 127:1067-1070 (1981) and pooled. The test animals are then each passively sensitized by subcutaneous injection of the pooled antiserum (1 ml).
# About 2-7 days after sensitization, the guinea pigs are sacrificed and the terminal ilea are removed. They are cut into strips (6 cm) and positioned in tissue baths (5 ml) of Tyrode's solution with atropine (1 μg/ml) at 37° C. One end of each strip is fixed to an immobile post and the other movably mounted to a Grass Ft. 0.03 linear force displacement transducer and a Grass Model 7 polygraph. The tension is set (at 1 gram) and the tissue is allowed to equilibrate (10 minutes). Tissue viability is tested by establishing a consistent response to histamine (0.5 μg/ml). After several histamine-induced contractions, mepyramine (1 μg/ml) is added to inhibit any contractions due to the anaphylactic release of endogenous histamine.
# A minimum of 3 animals are used for each compound tested and, of the 6 strips from each animal, 2 strips are incubated (preincubation) with a test compound (final concentration 75 μM), 2 with an appropriate reference standard (BW-755C at 75 μM) and 2 with saline solution (control) for a predetermined period (5 minutes). After this initial incubation period, ovalbumin (100 μg/ml) is added to each bath and the resulting anaphylactic contraction measured. The data are recorded as of tension produced by the tissue in excess of the 1 gram tension that was initially set. At the peak of the contraction, a dose of the same test compound (75 μM) is added (postincubation) to one control strip and reference standard (FPL-55712 at 1.9 μM). The strips are monitored (1 minute) and any effect on the established contraction is recorded as described above.
# Two types of data are derived from the above protocol. First, pre-antigen inhibition (prechallenge) is expressed as the percent inhibition in each of the strips preincubated with test compound measured against the averaged contractions of the two control strips. Prechallenge inhibition by the reference standard is also determined in each experiment as a positive control. The reference used consistently gives 60-80% inhibition. Second, post-antigen inhibition (postchallenge) is determined by measuring the decrease in anaphylactic contraction of a control strip produced by adding either a test compound or standard at the peak of the contraction. The reference used consistently gives 70-90% inhibition. The data in each experiment, therefore, consists of 2 prechallenge and 1 postchallenge value for both test compound and standard.
# [4] = tested on: 5-HETE biosynthesized by glycogen-stimulated polymorphonuclear leucocytes (PMNs); assay: Hydroxyacid Profile Assay (HPA): inhibition of 5-HETE synthesis in glycogen-elicited rabbit PMNs; conditions: Oryctolagus cuniculus, Leucocyte, read-out: Percent Inhibition; for inhibition at 50 µM: **tested at 50 μM
# [5] = added at peak of contraction after antigen, read-out: Postchallenge mean percent inhibition
# [6] = preincubation before ovalbumin antigen, read-out: Prechallenge mean percent inhibition
# [7] = added at peak of contraction after antigen, read-out: Postchallenge IC50
# [8] = preincubation before ovalbumin antigen, read-out: Prechallenge IC50
SMILES,inhibition at 20 µg/mL (guinea pig ileal strips [1]; [5]),inhibition at 20 µg/mL (guinea pig ileal strips [1]; [6]),inhibition at 100 µM ([2]; 5-HETE synthesis),inhibition at 75 µM (guinea pig ileal strips [3]; [5]),inhibition at 75 µM (guinea pig ileal strips [3]; [6]),further results
"CCCCCCCc1ccc(C(=O)CCCCC(=O)O)cc1 [Example 1, 5-(4-n-Heptylbenzoyl)pentanoic acid]",68%,81%,78%,,,pIC50 [2]: 4.52; pIC50 (guinea pig ileal strips [3]; [7]): 4.32; pIC50 (guinea pig ileal strips [3]; [8]): 4.57
"CCCCCc1ccc(C(=O)CCCCC(=O)O)cc1 [Example 2, 5-(4-n-Pentylbenzoyl)pentanoic acid]",58%,81%,59%,,,pIC50 [2]: 4.15; pIC50 (guinea pig ileal strips [3]; [7]): < 4.12; pIC50 (guinea pig ileal strips [3]; [8]): 4.46
"CCCCCc1ccc(C(=O)CCCC(=O)O)cc1 [Example 3, 4-(4-n-Pentylbenzoyl)butanoic acid]",47%,65%,0%,,,
"CCCCCc1ccc(C(=O)CCC(=O)O)cc1 [Example 4, 3-(4-n-Pentylbenzoyl)propanoic acid]",49%,65%,65%,,,
"CCCCCCCCCc1ccc(C(=O)CCCCC(=O)O)cc1 [Example 9, 5-(4-n-Nonylbenzoyl)pentanoic acid]",2%,33%,79%,,,
"CCCCCCCCCCc1ccc(C(=O)CCCCC(=O)O)cc1 [Example 10, 5-(4-n-Decylbenzoyl)pentanoic acid]",11%,7%,88%,,,
"CCCCCCCCCCCCCCc1ccc(C(=O)CCCCC(=O)O)cc1 [Example 11, 5-(4-n-Tetradecylbenzoyl)pentanoic acid]",14%,1%,76%,,,
"CCCCCCOc1ccc(C(=O)CCCCC(=O)O)cc1 [Example 12, 5-(4-n-Hexyloxybenzoyl)pentanoic acid]",18%,70%,75%,,,
"CCCCCCCc1ccc(C(=O)c2ccc(C(=O)O)cc2)cc1 [Example 14, 4-(4-n-Heptylbenzoyl)benzoic acid]",,,,16%,44%,inhibition at 50 µM [4]: 87%
"CCCCCCCc1ccc(C(=O)CCCCCC(=O)O)cc1 [Example 20, 6-(4-n-Heptylbenzoyl)hexanoic acid]",,,,3%,57%,inhibition at 50 µM [4]: 60%
"Cc1ccc(C(=O)CCCCC(=O)O)cc1 [Example 21, 5-(4-Methylbenzoyl)pentanoic acid]",11%,29%,,,,"inhibition at 10 µM ([2]; at 10 μM, 5-HETE synthesis, read-out: Percent Inhibition): 0%"
"O=C(O)CCCC(=O)c1ccccc1 [Example 22, 4-Benzoylbutanoic acid, reference compound]",11%,0%,,,,inhibition at 1000 µM ([4]; at 1000 μM): 0%
"COc1ccc(C(=O)c2cccc(C(=O)O)c2)c(O)c1 [Example 27, 3-(2-Hydroxy-4-methoxybenzoyl)benzoic acid]",,,31%,14%,58%,
"CCCCCCOc1ccc(C(=O)c2cccc(C(=O)O)c2)c(C)c1 [Example 29, 3-(4-n-Hexyloxy-2-methylbenzoyl)-benzoic acid]",,,88%,38%,86%,
"Cc1ccc(C(=O)c2cccc(C(=O)O)c2)c(O)c1 [Example 30, 3-(2-Hydroxy-4-methylbenzoyl)benzoic acid]",,,47%,6%,26%,
"CCCCOc1ccc(C(=O)CCCCC(=O)O)cc1 [Example 33, 5-(4-n-Butoxybenzoyl)pentanoic acid]",,,49%,29%,63%,
"CCCCCCCc1ccc(C(=O)CCCC(=O)O)cc1 [Example 34, 4-(4-n-Heptylbenzoyl)butanoic acid]",,,76%,39%,79%,pIC50 (guinea pig ileal strips [3]; [8]): 4.85
"O=C(O)c1cccc(C(=O)c2ccc(C3CCCCC3)cc2)c1 [Example 35, 3-(4-Cyclohexylbenzoyl)benzoic acid]",,,63%,43%,66%,pIC50 (guinea pig ileal strips [3]; [7]): < 4.12; pIC50 (guinea pig ileal strips [3]; [8]): 4.42
